Test results as given in PubChem BioAssay AID1259407 (Chemical Carcinogenesis Research Information System (CCRIS), 2018).
Active and inactive are the calls of the source. The rule behind the calls is not given here.

System: CCRIS mutagenicity, Ames/micronucleus/aberration tests
Assay: CCRIS mutagenicity studies
[1] = Test System: AMES SALMONELLA TYPHIMURIUM, Strain/Indicator: TA97, Metabolic Activation: NONE, Method: PREINCUBATION
[2] = Test System: AMES SALMONELLA TYPHIMURIUM, Strain/Indicator: TA98, Metabolic Activation: NONE, Method: PREINCUBATION
[3] = Test System: AMES SALMONELLA TYPHIMURIUM, Strain/Indicator: TA98, Metabolic Activation: NONE, Method: STANDARD PLATE
[4] = Test System: AMES SALMONELLA TYPHIMURIUM, Strain/Indicator: TA100, Metabolic Activation: NONE, Method: PREINCUBATION
[5] = Test System: AMES SALMONELLA TYPHIMURIUM, Strain/Indicator: TA100, Metabolic Activation: NONE, Method: STANDARD PLATE
[6] = Test System: AMES SALMONELLA TYPHIMURIUM, Strain/Indicator: TA1535, Metabolic Activation: NONE, Method: PREINCUBATION
[7] = Test System: MOUSE LYMPHOMA, Strain/Indicator: L5178Y (TK+/TK-), Metabolic Activation: NONE, Method: SUSPENSION/PLATE
[8] = Test System: AMES SALMONELLA TYPHIMURIUM, Strain/Indicator: TA98, Metabolic Activation: RAT, LIVER, S-9, AROCLOR 1254, Method: STANDARD PLATE
[9] = Test System: AMES SALMONELLA TYPHIMURIUM, Strain/Indicator: TA100, Metabolic Activation: RAT, LIVER, S-9, AROCLOR 1254, Method: STANDARD PLATE
[10] = Test System: AMES SALMONELLA TYPHIMURIUM, Strain/Indicator: TA98, Metabolic Activation: RAT, LIVER, S-9, AROCLOR 1254, Method: PREINCUBATION

With C[C@@H]1C[C@@H]([C@H](O)CC2CC(=O)NC(=O)C2)C(=O)[C@@H](C)C1 the mutagenic call (Test System: AMES SALMONELLA TYPHIMURIUM, Strain/Indicator: TA97, Metabolic Activation: HAMSTER, LIVER, S-9, AROCLOR 1254 (10 OR 30%), Method: PREINCUBATION) was “inactive; negative”, the mutagenic call [1] was “inactive; negative” and the mutagenic call (Test System: AMES SALMONELLA TYPHIMURIUM, Strain/Indicator: TA97, Metabolic Activation: RAT, LIVER, S-9, AROCLOR 1254 (10 OR 30%), Method: PREINCUBATION) was “inactive; negative”. The mutagenic call (Test System: AMES SALMONELLA TYPHIMURIUM, Strain/Indicator: TA98, Metabolic Activation: HAMSTER, LIVER, S-9, AROCLOR 1254 (10 OR 30%), Method: PREINCUBATION) was “inactive; negative”, the mutagenic call [2] was “inactive; negative” and the mutagenic call [3] was “inactive; negative”. For the same compound, the mutagenic call (Test System: AMES SALMONELLA TYPHIMURIUM, Strain/Indicator: TA98, Metabolic Activation: RAT, LIVER, S-9, AROCLOR 1254 (10 OR 30%), Method: PREINCUBATION) was “inactive; negative”, the mutagenic call (Test System: AMES SALMONELLA TYPHIMURIUM, Strain/Indicator: TA98, Metabolic Activation: RAT, LIVER, S-9, AROCLOR, Method: STANDARD PLATE) was “inactive; negative” and the mutagenic call (Test System: AMES SALMONELLA TYPHIMURIUM, Strain/Indicator: TA100, Metabolic Activation: HAMSTER, LIVER, S-9, AROCLOR 1254 (10 OR 30%), Method: PREINCUBATION) was “inactive; negative”. The mutagenic call [4] was “inactive; negative”, the mutagenic call [5] was “inactive; negative” and the mutagenic call (Test System: AMES SALMONELLA TYPHIMURIUM, Strain/Indicator: TA100, Metabolic Activation: RAT, LIVER, S-9, AROCLOR 1254 (10 OR 30%), Method: PREINCUBATION) was “inactive; negative”. For the same compound, the mutagenic call (Test System: AMES SALMONELLA TYPHIMURIUM, Strain/Indicator: TA100, Metabolic Activation: RAT, LIVER, S-9, AROCLOR, Method: STANDARD PLATE) was “inactive; negative”, the mutagenic call (Test System: AMES SALMONELLA TYPHIMURIUM, Strain/Indicator: TA1535, Metabolic Activation: HAMSTER, LIVER, S-9, AROCLOR 1254 (10 OR 30%), Method: PREINCUBATION) was “inactive; negative” and the mutagenic call [6] was “inactive; negative”. The mutagenic call (Test System: AMES SALMONELLA TYPHIMURIUM, Strain/Indicator: TA1535, Metabolic Activation: RAT, LIVER, S-9, AROCLOR 1254 (10 OR 30%), Method: PREINCUBATION) was “inactive; negative”, the mutagenic call (Test System: AMES SALMONELLA TYPHIMURIUM, Strain/Indicator: TA1537, Metabolic Activation: HAMSTER, LIVER, S-9, AROCLOR 1254 (30%), Method: PREINCUBATION) was “inactive; negative” and the mutagenic call (Test System: AMES SALMONELLA TYPHIMURIUM, Strain/Indicator: TA1537, Metabolic Activation: NONE, Method: PREINCUBATION) was “inactive; negative”. The mutagenic call (Test System: AMES SALMONELLA TYPHIMURIUM, Strain/Indicator: TA1537, Metabolic Activation: RAT, LIVER, S-9, AROCLOR 1254 (30%), Method: PREINCUBATION) was “inactive; negative” and the mutagenic call [7] was “active; positive”.

For COCCOCCOP1(OCCOCCOC)=NP(OCCOCCOC)(OCCOCCOC)=NP(OCCOCCOC)(OCCOCCOC)=N1, the mutagenic call [3] was “inactive; negative”, the mutagenic call [8] was “inactive; negative” and the mutagenic call [5] was “inactive; negative”. The mutagenic call [9] was “inactive; negative”.

c1ccc(-c2ccc(-c3ccccc3)cc2)cc1 was tested, and the mutagenic call (Test System: AMES SALMONELLA TYPHIMURIUM, Strain/Indicator: TA98, Metabolic Activation: HAMSTER, LIVER, S-9, AROCLOR 1254, Method: STANDARD PLATE) was “inactive; negative”, the mutagenic call [3] was “inactive; negative” and the mutagenic call [8] was “inactive; negative”. For the same compound, the mutagenic call (Test System: AMES SALMONELLA TYPHIMURIUM, Strain/Indicator: TA100, Metabolic Activation: HAMSTER, LIVER, S-9, AROCLOR 1254, Method: STANDARD PLATE) was “inactive; negative”, the mutagenic call [5] was “inactive; negative” and the mutagenic call [9] was “inactive; negative”. The mutagenic call (Test System: AMES SALMONELLA TYPHIMURIUM, Strain/Indicator: TA1535, Metabolic Activation: HAMSTER, LIVER, S-9, AROCLOR 1254, Method: STANDARD PLATE) was “inactive; negative”, the mutagenic call (Test System: AMES SALMONELLA TYPHIMURIUM, Strain/Indicator: TA1535, Metabolic Activation: NONE, Method: STANDARD PLATE) was “inactive; negative” and the mutagenic call (Test System: AMES SALMONELLA TYPHIMURIUM, Strain/Indicator: TA1535, Metabolic Activation: RAT, LIVER, S-9, AROCLOR 1254, Method: STANDARD PLATE) was “inactive; negative”. The mutagenic call (Test System: AMES SALMONELLA TYPHIMURIUM, Strain/Indicator: TA1537, Metabolic Activation: HAMSTER, LIVER, S-9, AROCLOR 1254, Method: STANDARD PLATE) was “inactive; negative”, the mutagenic call (Test System: AMES SALMONELLA TYPHIMURIUM, Strain/Indicator: TA1537, Metabolic Activation: NONE, Method: STANDARD PLATE) was “inactive; negative” and the mutagenic call (Test System: AMES SALMONELLA TYPHIMURIUM, Strain/Indicator: TA1537, Metabolic Activation: RAT, LIVER, S-9, AROCLOR 1254, Method: STANDARD PLATE) was “inactive; negative”. For the same compound, the mutagenic call (Test System: AMES SALMONELLA TYPHIMURIUM, Strain/Indicator: TA1538, Metabolic Activation: HAMSTER, LIVER, S-9, AROCLOR 1254, Method: STANDARD PLATE) was “inactive; negative”, the mutagenic call (Test System: AMES SALMONELLA TYPHIMURIUM, Strain/Indicator: TA1538, Metabolic Activation: NONE, Method: STANDARD PLATE) was “inactive; negative” and the mutagenic call (Test System: AMES SALMONELLA TYPHIMURIUM, Strain/Indicator: TA1538, Metabolic Activation: RAT, LIVER, S-9, AROCLOR 1254, Method: STANDARD PLATE) was “inactive; negative”. For the same compound, the mutagenic call [7] was “inactive; negative. reevaluation of results: negative” and the mutagenic call (Test System: MOUSE LYMPHOMA, Strain/Indicator: L5178Y (TK+/TK-), Metabolic Activation: RAT, LIVER, S-9, AROCLOR 1254, Method: SUSPENSION/PLATE) was “active; positive. reevaluation of results: equivocal”.

With CCn1c(N)nc2c3nc(C)cnc3ccc21 the mutagenic call [10] was “active; positive”.

In the case of O=[N+]([O-])c1ccc(Nc2ccc(Nc3ccccc3)c(S(=O)(=O)O)c2)c([N+](=O)[O-])c1, the mutagenic call (Test System: AMES SALMONELLA TYPHIMURIUM, Strain/Indicator: TA97, Metabolic Activation: HAMSTER, LIVER, S-9, AROCLOR 1254, Method: PREINCUBATION) is reported as “active; positive”, the mutagenic call [1] is reported as “active; positive” and the mutagenic call (Test System: AMES SALMONELLA TYPHIMURIUM, Strain/Indicator: TA97, Metabolic Activation: RAT, LIVER, S-9, AROCLOR 1254, Method: PREINCUBATION) is reported as “active; positive”. For the same compound, the mutagenic call (Test System: AMES SALMONELLA TYPHIMURIUM, Strain/Indicator: TA98, Metabolic Activation: HAMSTER, LIVER, S-9, AROCLOR 1254, Method: PREINCUBATION) was “active; positive”, the mutagenic call [2] was “active; positive” and the mutagenic call [10] was “active; positive”. For the same compound, the mutagenic call (Test System: AMES SALMONELLA TYPHIMURIUM, Strain/Indicator: TA100, Metabolic Activation: HAMSTER, LIVER, S-9, AROCLOR 1254, Method: PREINCUBATION) was “active; positive”, the mutagenic call [4] was “active; positive” and the mutagenic call (Test System: AMES SALMONELLA TYPHIMURIUM, Strain/Indicator: TA100, Metabolic Activation: RAT, LIVER, S-9, AROCLOR 1254, Method: PREINCUBATION) was “active; positive”. For the same compound, the mutagenic call (Test System: AMES SALMONELLA TYPHIMURIUM, Strain/Indicator: TA1535, Metabolic Activation: HAMSTER, LIVER, S-9, AROCLOR 1254, Method: PREINCUBATION) was “inactive; negative”, the mutagenic call [6] was “inactive; negative” and the mutagenic call (Test System: AMES SALMONELLA TYPHIMURIUM, Strain/Indicator: TA1535, Metabolic Activation: RAT, LIVER, S-9, AROCLOR 1254, Method: PREINCUBATION) was “inactive; negative”.

In the case of CCCCCCC(C)(C)C(=O)OCC1CO1 (stereo not given), the mutagenic call (Test System: AMES SALMONELLA TYPHIMURIUM, Strain/Indicator: TA100, Metabolic Activation: HAMSTER, LIVER, S-9, AROCLOR 1254 (30%), Method: PREINCUBATION) is reported as “active; positive”, the mutagenic call [4] is reported as “inactive; negative” and the mutagenic call (Test System: AMES SALMONELLA TYPHIMURIUM, Strain/Indicator: TA100, Metabolic Activation: RAT, LIVER, S-9, AROCLOR 1254 (30%), Method: PREINCUBATION) is reported as “active; positive”. The mutagenic call (Test System: AMES SALMONELLA TYPHIMURIUM, Strain/Indicator: TA1535, Metabolic Activation: HAMSTER, LIVER, S-9, AROCLOR 1254 (30%), Method: PREINCUBATION) was “active; positive”, the mutagenic call [6] was “inactive; negative” and the mutagenic call (Test System: AMES SALMONELLA TYPHIMURIUM, Strain/Indicator: TA1535, Metabolic Activation: RAT, LIVER, S-9, AROCLOR 1254 (30%), Method: PREINCUBATION) was “active; positive”.
